Measurements from ChEMBL document CHEMBL3045223, “Synthesis, nematicidal and antimicrobial properties of Bis-[4-methoxy-3-[3-(4-fluorophenyl)-6-(4-methylphenyl)-2(aryl)-tetrahydro-2H-pyrazolo[3,4-d]thiazol-5-yl]phenyl]methanes” (2009).
Values after ≈ are worked out from the molar mass of the structure shown. Active and inactive are the calls of the source. The calls are words filed in the database; no cut-off is given here.

What was measured:
Format in all cases: functional
[1] = system: Trichophyton mentagrophytes; test: Antifungal activity against Trichophyton mentagrophytes IFO 40996 assessed as growth inhibition at 37 degC for 48 hr
Trichophyton rubrum [2] = test: Antifungal activity against Trichophyton rubrum IFO 9185 assessed as growth inhibition at 37 degC for 48 hr
Aspergillus fumigatus [3] = test: Antifungal activity against Aspergillus fumigatus HIC 6094 assessed as growth inhibition at 37 degC for 48 hr
Candida albicans [4] = test: Antifungal activity against Candida albicans ATCC 10231 assessed as growth inhibition at 37 degC for 48 hr; details: ATCC 10231, 48 h
[5] = system: Trichophyton mentagrophytes; test: Antifungal activity against Trichophyton mentagrophytes IFO 40996 assessed as growth inhibition at 300 ug/disc at 37 degC for 48 hr
Trichophyton rubrum [6] = test: Antifungal activity against Trichophyton rubrum IFO 9185 assessed as growth inhibition at 300 ug/disk at 37 degC for 48 hr; details: for zone of inhibition at 300 µg/disc: IFO 9185, 48 h, read-out: IZ
Aspergillus fumigatus [7] = test: Antifungal activity against Aspergillus fumigatus HIC 6094 assessed as growth inhibition at 300 ug/disc at 37 degC for 48 hr; details: for zone of inhibition at 300 µg/disc: HIC 6094, 48 h, read-out: IZ
Candida albicans [8] = test: Antifungal activity against Candida albicans ATCC 10231 assessed as growth inhibition at 300 ug/disk at 37 degC for 48 hr
[9] = system: Chromobacterium violaceum; test: Antibacterial activity against Chromobacterium violaceum MTCC 2656 assessed as growth arrest at 37 degC for 24 hr; details: MTCC 2656, 24 h
Klebsiella aerogenes [10] = test: Antibacterial activity against Enterobacter aerogenes MTCC 39 assessed as growth arrest at 37 degC for 24 hr; details: MTCC 39, 24 h
Pseudomonas aeruginosa [11] = test: Antibacterial activity against Pseudomonas aeruginosa MTCC 741 assessed as growth arrest at 37 degC for 24 hr; details: MTCC 741, 24 h
Staphylococcus aureus [12] = test: Antibacterial activity against Staphylococcus aureus MTCC 96 assessed as growth arrest at 37 degC for 24 hr; details: MTCC 96, 24 h
[13] = system: Lysinibacillus sphaericus; test: Antibacterial activity against Lysinibacillus sphaericus MTCC 11 assessed as growth arrest at 37 degC for 24 hr; details: MTCC 11, 24 h
Bacillus subtilis [14] = test: Antibacterial activity against Bacillus subtilis MTCC 441 assessed as growth arrest at 37 degC for 24 hr; details: MTCC 441, 24 h
[15] = system: Chromobacterium violaceum; test: Antibacterial activity against Chromobacterium violaceum MTCC 2656 assessed as inhibition zones at 300 ug/disk at 37 degC for 24 hr; details: MTCC 2656, 24 h, read-out: IZ
Klebsiella aerogenes [16] = test: Antibacterial activity against Enterobacter aerogenes MTCC 39 assessed as inhibition zones at 300 ug/disk at 37 degC for 24 hr; details: MTCC 39, 24 h, read-out: IZ
Pseudomonas aeruginosa [17] = test: Antibacterial activity against Pseudomonas aeruginosa MTCC 741 assessed as inhibition zones at 300 ug/disk at 37 degC for 24 hr; details: MTCC 741, 24 h, read-out: IZ
Staphylococcus aureus [18] = test: Antibacterial activity against Staphylococcus aureus MTCC 96 assessed as inhibition zones at 300 ug/disc at 37 degC for 24 hr; details: MTCC 96, 24 h, read-out: IZ
[19] = system: Lysinibacillus sphaericus; test: Antibacterial activity against Lysinibacillus sphaericus MTCC 11 assessed as inhibition zones at 300 ug/disk at 37 degC for 24 hr; details: MTCC 11, 24 h, read-out: IZ
Bacillus subtilis [20] = test: Antibacterial activity against Bacillus subtilis MTCC 441 assessed as inhibition zones at 300 ug/disk at 37 degC for 24 hr; details: MTCC 441, 24 h, read-out: IZ
Caenorhabditis elegans = test: Nematicidal activity against Caenorhabditis elegans assessed as immobility; details: read-out: LD50 (the source's name)
[21] = system: Ditylenchus myceliophagus; test: Nematicidal activity against Ditylenchus myceliophagus assessed as immobility; details: read-out: LD50 (the source's name)

## COc1ccc(Cc2ccc(OC)c(C3SC4C(=NN(C(C)C)C4c4ccc(F)cc4)N3c3ccc(C)cc3)c2)cc1C1SC2C(=NN(C(C)C)C2c2ccc(F)cc2)N1c1ccc(C)cc1 (stereo unspecified)
[1]
  MBC: inactive
  MIC: inactive
Trichophyton rubrum [2]
  MBC: inactive
  MIC: inactive
Aspergillus fumigatus [3]
  MBC: inactive
  MIC: inactive
Candida albicans [4]
  MBC: 25 µg/mL (≈ 26.7 µM)
  MIC: 12.5 µg/mL (≈ 13.4 µM)
[5]
  inhibition zone (IZ): inactive
Trichophyton rubrum [6]
  inhibition zone (IZ): inactive
Aspergillus fumigatus [7]
  zone of inhibition at 300 µg/disc: 13 mm
Candida albicans [8]
  inhibition zone (IZ): inactive
[9]
  MBC: 25 µg/mL (≈ 26.7 µM)
  MIC: 25 µg/mL (≈ 26.7 µM)
Klebsiella aerogenes [10]
  MBC: 12.5 µg/mL (≈ 13.4 µM)
  MIC: 12.5 µg/mL (≈ 13.4 µM)
Pseudomonas aeruginosa [11]
  MBC: 12.5 µg/mL (≈ 13.4 µM)
  MIC: 6.25 µg/mL (≈ 6.68 µM)
Staphylococcus aureus [12]
  MBC: 50 µg/mL (≈ 53.5 µM)
  MIC: 25 µg/mL (≈ 26.7 µM)
[13]
  MBC: 50 µg/mL (≈ 53.5 µM)
  MIC: 50 µg/mL (≈ 53.5 µM)
Bacillus subtilis [14]
  MBC: 50 µg/mL (≈ 53.5 µM)
  MIC: 25 µg/mL (≈ 26.7 µM)
[15]
  zone of inhibition at 300 µg/disc: 16 mm
Klebsiella aerogenes [16]
  zone of inhibition at 300 µg/disc: 19 mm
Pseudomonas aeruginosa [17]
  zone of inhibition at 300 µg/disc: 23 mm
Staphylococcus aureus [18]
  zone of inhibition at 300 µg/disc: 23 mm
[19]
  zone of inhibition at 300 µg/disc: 13 mm
Bacillus subtilis [20]
  zone of inhibition at 300 µg/disc: 13 mm
Caenorhabditis elegans
  LC50: 600 µg/mL (≈ 642 µM)
[21]
  LC50: 550 µg/mL (≈ 588 µM)

## COc1ccc(Cc2ccc(OC)c(C3SC4C(=NN(C(C)C)C4c4ccc(F)cc4)N3c3ccc([N+](=O)[O-])cc3)c2)cc1C1SC2C(=NN(C(C)C)C2c2ccc(F)cc2)N1c1ccc([N+](=O)[O-])cc1 (stereo unspecified)
[1]; IFO 40996, 48 h
  MBC: 25 µg/mL (≈ 25.1 µM)
  MIC: 12.5 µg/mL (≈ 12.5 µM)
Trichophyton rubrum [2]; IFO 9185, 48 h
  MBC: 25 µg/mL (≈ 25.1 µM)
  MIC: 12.5 µg/mL (≈ 12.5 µM)
Aspergillus fumigatus [3]; HIC 6094, 48 h
  MBC: 50 µg/mL (≈ 50.1 µM)
  MIC: 25 µg/mL (≈ 25.1 µM)
Candida albicans [4]
  MBC: 25 µg/mL (≈ 25.1 µM)
  MIC: 25 µg/mL (≈ 25.1 µM)
[5]
  inhibition zone (IZ): inactive
Trichophyton rubrum [6]
  zone of inhibition at 300 µg/disc: 9 mm
Aspergillus fumigatus [7]
  inhibition zone (IZ): inactive
Candida albicans [8]
  inhibition zone (IZ): inactive
[9]
  MBC: 50 µg/mL (≈ 50.1 µM)
  MIC: 25 µg/mL (≈ 25.1 µM)
Klebsiella aerogenes [10]
  MBC: 25 µg/mL (≈ 25.1 µM)
  MIC: 12.5 µg/mL (≈ 12.5 µM)
Pseudomonas aeruginosa [11]
  MBC: 25 µg/mL (≈ 25.1 µM)
  MIC: 25 µg/mL (≈ 25.1 µM)
Staphylococcus aureus [12]
  MBC: 50 µg/mL (≈ 50.1 µM)
  MIC: 25 µg/mL (≈ 25.1 µM)
[13]
  MBC: 50 µg/mL (≈ 50.1 µM)
  MIC: 50 µg/mL (≈ 50.1 µM)
Bacillus subtilis [14]
  MBC: 25 µg/mL (≈ 25.1 µM)
  MIC: 25 µg/mL (≈ 25.1 µM)
[15]
  zone of inhibition at 300 µg/disc: 15 mm
Klebsiella aerogenes [16]
  zone of inhibition at 300 µg/disc: 17 mm
Pseudomonas aeruginosa [17]
  zone of inhibition at 300 µg/disc: 10 mm
Staphylococcus aureus [18]
  zone of inhibition at 300 µg/disc: 23 mm
[19]
  zone of inhibition at 300 µg/disc: 13 mm
Bacillus subtilis [20]
  zone of inhibition at 300 µg/disc: 18 mm
Caenorhabditis elegans
  LC50: 600 µg/mL (≈ 602 µM)
[21]
  LC50: 510 µg/mL (≈ 511 µM)

## COc1ccc(Cc2ccc(OC)c(C3SC4C(=NN(C)C4c4ccc(F)cc4)N3c3ccc(C)cc3)c2)cc1C1SC2C(=NN(C)C2c2ccc(F)cc2)N1c1ccc(C)cc1 (stereo unspecified)
[1]; IFO 40996, 48 h
  MBC: 12.5 µg/mL (≈ 14.2 µM)
  MIC: 6.25 µg/mL (≈ 7.11 µM)
Trichophyton rubrum [2]; IFO 9185, 48 h
  MBC: 6.25 µg/mL (≈ 7.11 µM)
  MIC: 3.12 µg/mL (≈ 3.55 µM)
Aspergillus fumigatus [3]; HIC 6094, 48 h
  MBC: 6.25 µg/mL (≈ 7.11 µM)
  MIC: 3.12 µg/mL (≈ 3.55 µM)
Candida albicans [4]
  MBC: 3.12 µg/mL (≈ 3.55 µM)
  MIC: 3.12 µg/mL (≈ 3.55 µM)
[5]; IFO 40996, 48 h, read-out: IZ
  zone of inhibition at 300 µg/disc: 18 mm
Trichophyton rubrum [6]
  zone of inhibition at 300 µg/disc: 20 mm
Aspergillus fumigatus [7]
  zone of inhibition at 300 µg/disc: 20 mm
Candida albicans [8]; ATCC 10231, 48 h, read-out: IZ
  zone of inhibition at 300 µg/disc: 20 mm
[9]
  MBC: 12.5 µg/mL (≈ 14.2 µM)
  MIC: 6.25 µg/mL (≈ 7.11 µM)
Klebsiella aerogenes [10]
  MBC: 12.5 µg/mL (≈ 14.2 µM)
  MIC: 6.25 µg/mL (≈ 7.11 µM)
Pseudomonas aeruginosa [11]
  MBC: 12.5 µg/mL (≈ 14.2 µM)
  MIC: 12.5 µg/mL (≈ 14.2 µM)
Staphylococcus aureus [12]
  MBC: 25 µg/mL (≈ 28.4 µM)
  MIC: 12.5 µg/mL (≈ 14.2 µM)
[13]
  MBC: 25.5 µg/mL (≈ 29 µM)
  MIC: 12.5 µg/mL (≈ 14.2 µM)
Bacillus subtilis [14]
  MBC: 50 µg/mL (≈ 56.9 µM)
  MIC: 6.25 µg/mL (≈ 7.11 µM)
[15]
  zone of inhibition at 300 µg/disc: 18 mm
Klebsiella aerogenes [16]
  zone of inhibition at 300 µg/disc: 20 mm
Pseudomonas aeruginosa [17]
  zone of inhibition at 300 µg/disc: 14 mm
Staphylococcus aureus [18]
  zone of inhibition at 300 µg/disc: 25 mm
[19]
  zone of inhibition at 300 µg/disc: 13 mm
Bacillus subtilis [20]
  zone of inhibition at 300 µg/disc: 13 mm
Caenorhabditis elegans
  LC50: 200 µg/mL (≈ 228 µM)
[21]
  LC50: 160 µg/mL (≈ 182 µM)
